Test results as given in patent US9206136B2, “Pyrazolyl-based carboxamides I” (Grünenthal GmbH, priority 2013, dated 2015).

Tests used:
[1] = molecular target: T1, CRAC channel (endogenous SOC in HEK293 cells) (Homo sapiens, UniProt Q96D31); test: HEK Calcium Influx Assay (FLIPR); type: cell-based; conditions: 10 μM compound, thapsigargin store depletion, Ca2+ signal 9.5-10 min post-administration, read-out: % inhib. [@ 10 μM] FLIPR
T1 construct: host or cells: HEK293
Method: Compounds of the invention have been tested for their effects on CRAC channels according to the following or similar procedures.
The effect of compounds of the invention on intracellular [Ca^2+] was tested in the HEK293 cell line (ECACC).
HEK293 cells were cultured in DMEM/F12/Glutamax (Gibco) containing 10% FCS (Gibco), and maintained at 37° C., 5% CO2. Cell were split twice a week [3·10^6 (Mon-Thu) and 1·10^6 (Thu-Mon) cells/50 ml medium in T-175 ZK culture flasks, respectively]. 24 hours pre-experiment, cells were seeded on 96 well plates (Poly-D-Lysine 96well Black/Clear Plate, BD Biocoat REF 356640) at a density of 40,000 cells/well in DMEM/F12 (Gibco) containing 10% FCS (Gibco), and maintained at 37° C., 5% CO2.
Prior to store-depletion, cell culture medium was removed and cells were loaded with the a Ca^2+-sensitive fluorescent dye comprised within the Calcium-4-assay kit (Molecular Devices) in nominally Ca^2+-free HBS buffer (140 mM NaCl, 4 mM KCl, 0.2 mM MgCl2, 11 mM D-glucose, and 10 mM HEPES, pH 7.4) according to manufacturer's instruction for 60 min at 37° C., 5% CO2.
Passive depletion of intracellular Ca^2+-stores was then triggered by employing the SERCA inhibitor thapsigargin (2 μM final) for 10 min in the dark (rt). To prevent immediate Ca^2+-entry via the activated Store-operated channels (SOCs), cells were maintained in Ca^2+-free HBS buffer comprising 100 μM EGTA during store-depletion.
Intracellular changes in [Ca^2+] were subsequently monitored with the FLIPR device (Molecular Devices). In brief, baseline imaging post-store depletion was allowed for 1 min before adjusting the extracellular buffer to 3 mM CaCl2. Increases in intracellular [Ca^2+] due to pre-activated SOC channels were monitored for 15 min until intracellular Ca^2+ levels had declined into a steady-state. Finally, compounds were administered and Ca^2+ signals were recorded for additional 10 min.
Inhibition of endogenous SOC in HEK293 cells was quantified employing the average Ca^2+ signal measured from 9.5-10 min post-administration. Zero percent inhibition (MAX) was defined as the Ca^2+ signal recorded from wells to which DMSO-only had been added instead of compound. Hundred percent inhibition (MIN) was defined as the signal obtained from wells in which cells haven't been treated with TG prior to Ca^2+ addition and to which DMSO-only had been added instead of compound. For routine IC50 determinations of compounds, 8 concentrations of a serial dilution (1:3.16) were tested, starting off from 10 μM. Reliable IC50's could consequently be determined only, if they were at least sub 2.5-3 μM.

[2] = system: Interleukin-2 (IL-2) production/release in Jurkat T cell line clone E6-1; test: Jurkat IL-2 Production Assay; type: cell-based; conditions: Homo sapiens; Jurkat T cells stimulated with 15 μg/ml PHA for 22 hours; IL-2 in supernatant (AlphaLisa)
Method: Jurkat IL-2 Production Assay
The effect of compounds of the invention on Interleukin-2 (IL-2) production/release was tested in the Jurkat T cell line (ECACC) clone E6-1.
Jurkat T cells were cultured in DMEM/F12/Glutamax (Gibco) containing 10% FCS (Gibco), and maintained at 37° C., 5% CO2. Cells were split twice a week [5·10^6 (Mon-Thu) and 1·10^7 (Thu-Mon) cells/50 ml medium in T-175 ZK culture flasks, respectively].
Prior to experiment, cells were seeded on 96 well plates (Cellstar 96 Well; Cat No. 655180, Greiner bio-one) at a density of 5·10^5 cells/well in DMEM/F12/Glutamax (Gibco) containing 10% FCS (Gibco), and incubated for 60 min at 37° C., 5% CO2. Subsequently, compounds were added and cells were allowed to incubate for 30 min at 37° C., 5% CO2. Cells were then stimulated with 15 μg/ml Phyto-hemagglutinin (PHA; Sigma) for 22 hours at 37° C., 5% CO2.
Before sampling of the supernatants, cells were spun down (200*g/5 min/RT). The amount of IL-2 released into the supernatant was quantified with the human IL-2 AlphaLisa kit (Perkin Elmer) according to manufacturer's instructions. Luminescence proximity measurements were carried out in the Synergy H4 reader (BioTek) employing the fluorescence setting of the reader (ex: 680/30 nm; em: 620/40 nm).
Inhibition of IL-Production/Release in/from Jurkat T Cells Cells was Quantified as Follows:
Zero percent inhibition (MAX) was defined as the [IL-2] determined in supernatants derived from cells to which PHA & DMSO-only had been added instead of compound. Hundred percent inhibition (MIN) was defined as the [IL-2] determined in supernatants derived from cells that had been pre-treated with 1 μM CyclosporineA (Sigma) before the addition of 15 μg/ml PHA.
For routine IC50 determinations of compounds, 8 concentrations of a serial dilution (1:3.16) were tested, starting off from 10 μM.

T1 sequence (Q96D31 whole entry): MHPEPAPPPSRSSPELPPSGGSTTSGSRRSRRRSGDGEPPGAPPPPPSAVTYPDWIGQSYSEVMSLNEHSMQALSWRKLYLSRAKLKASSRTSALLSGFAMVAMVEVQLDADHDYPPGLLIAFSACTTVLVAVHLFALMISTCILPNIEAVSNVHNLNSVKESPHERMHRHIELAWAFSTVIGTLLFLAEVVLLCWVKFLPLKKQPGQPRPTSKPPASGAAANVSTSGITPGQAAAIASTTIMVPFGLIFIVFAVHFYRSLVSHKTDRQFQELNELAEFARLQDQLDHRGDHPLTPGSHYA

SMILES	inhibition at 10 µM [1] [%]	IC50 [2] [µM]
Cc1ccc(C2CCOCC2)cc1-c1cc(C(=O)Nc2c(F)cccc2F)nn1C [Example 22, N-(2,6-Difluoro-phenyl)-1-methyl-5-(2-methyl-5-tetrahydro-pyran-4-yl-phenyl)-1H-pyrazole-3-carboxylic acid amide]	> 70	1 to 5
Cc1ccc(-c2ncn(C)n2)cc1-c1cc(C(=O)Nc2c(F)cccc2F)nn1C [Example 23, N-(2,6-Difluoro-phenyl)-1-methyl-5-[2-methyl-5-(1-methyl-1H-[1,2,4]triazol-3-yl)-phenyl]-1H-pyrazole-3-carboxylic acid amide]	< 50	1 to 5
Cc1cc(-c2nccs2)ccc1-c1cc(C(=O)Nc2c(F)cccc2F)nn1C [Example 24, N-(2,6-Difluoro-phenyl)-1-methyl-5-(2-methyl-4-thiazol-2-yl-phenyl)-1H-pyrazole-3-carboxylic acid amide]	> 70	1 to 5
Cc1ccc(-c2nccs2)cc1-c1c(C)c(C(=O)Nc2c(F)cccc2F)nn1C [Example 25, N-(2,6-Difluoro-phenyl)-1,4-dimethyl-5-(2-methyl-5-thiazol-2-yl-phenyl)-1H-pyrazole-3-carboxylic acid amide]	< 50	1 to 5
Cc1ccc(-c2nccs2)cc1-c1c(C)c(C(=O)Nc2ccncc2F)nn1C [Example 26, N-(3-Fluoro-pyridin-4-yl)-1,4-dimethyl-5-(2-methyl-5-thiazol-2-yl-phenyl)-1H-pyrazole-3-carboxylic acid amide]	< 50	1 to 5
Cc1c(C(=O)Nc2c(F)cccc2F)nn(C)c1-c1cccc(-c2nccs2)c1 [Example 27, N-(2,6-Difluoro-phenyl)-1,4-dimethyl-5-(3-thiazol-2-yl-phenyl)-1H-pyrazole-3-carboxylic acid amide]	> 70	0.5 to 1
Cc1nnc(-c2ccc(C)c(-c3cc(C(=O)Nc4c(F)cccc4F)nn3C)c2)[nH]1 [Example 28, N-(2,6-Difluoro-phenyl)-1-methyl-5-[2-methyl-5-(5-methyl-4H-[1,2,4]triazol-3-yl)-phenyl]-1H-pyrazole-3-carboxylic acid amide]	< 50	1 to 5
Cn1nc(C(=O)Nc2c(F)cccc2F)cc1-c1cc(-c2ncco2)ccc1OC(F)(F)F [Example 30, N-(2,6-Difluoro-phenyl)-1-methyl-5-[5-oxazol-2-yl-2-(trifluoromethyloxy)-phenyl]-1H-pyrazole-3-carboxylic acid amide]	> 70	0.5 to 1
Cn1nc(C(=O)Nc2ccncc2F)cc1-c1cc(-c2ncco2)ccc1OC(F)(F)F [Example 31, N-(3-Fluoro-pyridin-4-yl)-1-methyl-5-[5-oxazol-2-yl-2-(trifluoromethyloxy)-phenyl]-1H-pyrazole-3-carboxylic acid amide]	50 to 70	1 to 5
Cc1ccc(-c2nnc[nH]2)cc1-c1cc(C(=O)Nc2c(F)cccc2F)nn1C [Example 32, N-(2,6-Difluoro-phenyl)-1-methyl-5-[2-methyl-5-(4H-[1,2,4]triazol-3-yl)-phenyl]-1H-pyrazole-3-carboxylic acid amide]	< 50	1 to 5
Cn1nc(C(=O)Nc2c(F)cncc2F)cc1-c1cc(-c2ncco2)ccc1OC(F)(F)F [Example 33, N-(3,5-Difluoro-pyridin-4-yl)-1-methyl-5-[5-oxazol-2-yl-2-(trifluoro-methyloxy)-phenyl]-1H-pyrazole-3-carboxylic acid amide]	50 to 70	0.5 to 1
COc1ccc(C2CC2)cc1-c1c(C)c(C(=O)Nc2c(F)cccc2F)nn1C [Example 34, 5-(5-Cyclopropyl-2-methoxy-phenyl)-N-(2,6-difluoro-phenyl)-1,4-dimethyl-1H-pyrazole-3-carboxylic acid amide]	> 70	0.5 to 1
COc1ccc(C2CC2)cc1-c1c(C)c(C(=O)Nc2c(F)cncc2F)nn1C [Example 35, 5-(5-Cyclopropyl-2-methoxy-phenyl)-N-(3,5-difluoro-pyridin-4-yl)-1,4-dimethyl-1H-pyrazole-3-carboxylic acid amide]	> 70	0.5 to 1
Cn1nc(C(=O)Nc2c(F)cccc2F)cc1-c1cc(C2CC2)ccc1OC(F)(F)F [Example 36, 5-[5-Cyclopropyl-2-(trifluoromethyloxy)-phenyl]-N-(2,6-difluoro-phenyl)-1-methyl-1H-pyrazole-3-carboxylic acid amide]	> 70	< 0.5
Cn1nc(C(=O)Nc2c(F)cncc2F)cc1-c1cc(C2CC2)ccc1OC(F)(F)F [Example 37, 5-[5-Cyclopropyl-2-(trifluoromethyloxy)-phenyl]-N-(3,5-difluoro-pyridin-4-yl)-1-methyl-1H-pyrazole-3-carboxylic acid amide]	> 70	< 0.5
Cn1nc(C(=O)Nc2ccncc2F)cc1-c1cc(C2CC2)ccc1OC(F)(F)F [Example 38, 5-[5-Cyclopropyl-2-(trifluoromethyloxy)-phenyl]-N-(3-fluoro-pyridin-4-yl)-1-methyl-1H-pyrazole-3-carboxylic acid amide]	> 70	1 to 5
Cn1nc(C(=O)Nc2c(F)cccc2F)cc1-c1ccc(C2CC2)cc1OC(F)(F)F [Example 39, 5-[4-Cyclopropyl-2-(trifluoromethyloxy)-phenyl]-N-(2,6-difluoro-phenyl)-1-methyl-1H-pyrazole-3-carboxylic acid amide]	> 70	< 0.5
Cn1nc(C(=O)Nc2c(F)cncc2F)cc1-c1ccc(C2CC2)cc1OC(F)(F)F [Example 40, 5-[4-Cyclopropyl-2-(trifluoromethyloxy)-phenyl]-N-(3,5-difluoro-pyridin-4-yl)-1-methyl-1H-pyrazole-3-carboxylic acid amide]	> 70	< 0.5
Cn1nc(C(=O)Nc2ccncc2F)cc1-c1ccc(C2CC2)cc1OC(F)(F)F [Example 41, 5-[4-Cyclopropyl-2-(trifluoromethyloxy)-phenyl]-N-(3-fluoro-pyridin-4-yl)-1-methyl-1H-pyrazole-3-carboxylic acid amide]	> 70	1 to 5
Cc1ccc(-c2ncco2)cc1-c1c(N)c(C(=O)Nc2c(F)cncc2F)nn1C [Example 43, 4-Amino-N-(3,5-difluoro-pyridin-4-yl)-1-methyl-5-(2-methyl-5-oxazol-2-yl-phenyl)-1H-pyrazole-3-carboxylic acid amide]	< 50	1 to 5
